# Source: article PMC4467398, “Preclinical antitumor activity of ST7612AA1: a new oral thiol-based histone deacetylase (HDAC) inhibitor” (Oncotarget, 2014)
# Test system: DOHH2 and TMD8 DLBCL cells
# Test: Gene expression profiling (HumanHT-12 v4 BeadChip, limma), ST7612AA1 300 nM 8 hrs vs DMSO
# Type: cell-based, human
# Conditions: 300 nM 8 hrs vs DMSO
compound,measurement,value
CC(=O)SCCCCC[C@H](NC(=O)[C@H]1CCC(=O)N1)C(=O)Nc1ccccc1 [ST7612AA1],log ratio POGK (ILMN_1756669),-8.84E-01
same,log ratio POLR1C (ILMN_1746686),-8.40E-01
same,log ratio PPP1R13B (ILMN_1748831),6.43E-01
same,log ratio PPP2R1A (ILMN_1810467),-5.99E-01
same,log ratio PPRC1 (ILMN_1796210),-1.03E+00
same,log ratio PRDM10 (ILMN_2352293),-8.83E-01
same,log ratio PRDX2 (probe ILMN_1767766),8.35E-01
same,log ratio PRDX2 (probe ILMN_2382829),7.41E-01
same,log ratio PRKAR1B (ILMN_1674390),-8.76E-01
same,log ratio PRKCB1 (ILMN_1806908),6.12E-01
same,log ratio PRMT3 (ILMN_1662964),-1.23E+00
same,log ratio PSMB5 (ILMN_1744649),-9.34E-01
same,log ratio PSMB10 (ILMN_1683026),-8.38E-01
same,log ratio PSMG4 (ILMN_3224204),-5.99E-01
same,log ratio PTGER4 (probe ILMN_1795930),9.03E-01
same,log ratio PTMS (ILMN_1721046),6.73E-01
same,log ratio PTPN7 (ILMN_1715214),-6.16E-01
same,log ratio PTS (ILMN_2162328),-8.08E-01
same,log ratio PTTG1 (probe ILMN_1753196),6.92E-01
same,log ratio PTTG1IP (ILMN_1802251),6.45E-01
same,log ratio PTTG1IP (ILMN_2128750),6.16E-01
same,log ratio PTTG3P (ILMN_2049021),6.08E-01
same,log ratio QTRTD1 (ILMN_2155516),-7.99E-01
same,log ratio RAB8B (probe ILMN_2173004),8.71E-01
same,log ratio RAB11FIP2 (ILMN_2072541),-5.92E-01
same,log ratio RAB11FIP5 (ILMN_1740604),6.69E-01
same,log ratio RAB24 (probe ILMN_2379718),7.77E-01
same,log ratio RABEPK (ILMN_1741957),-9.81E-01
same,log ratio RABGAP1 (probe ILMN_2061950),6.86E-01
same,log ratio RAD9A (ILMN_1684183),6.33E-01
same,log ratio RAN (ILMN_1757384),-8.66E-01
same,log ratio RAPGEF2 (probe ILMN_3247261),8.54E-01
same,log ratio RASAL1 (probe ILMN_1793517),7.10E-01
same,log ratio RASD2 (probe ILMN_2170209),7.75E-01
same,log ratio RASGRP3 (ILMN_1727045),-9.48E-01
same,log ratio RASL10A (ILMN_1747673),6.25E-01
same,log ratio RASSF2 (ILMN_1709683),-8.05E-01
same,log ratio RBM23 (ILMN_1780756),-8.92E-01
same,log ratio RBM23 (ILMN_2363106),-9.17E-01
same,log ratio RBM38 (ILMN_2404049),6.27E-01
same,log ratio RCAN1 (ILMN_2367239),6.08E-01
same,log ratio RCC2 (ILMN_1720124),-8.76E-01
same,log ratio REEP2 (probe ILMN_1666057),6.85E-01
same,log ratio RFC1 (probe ILMN_2217935),7.23E-01
same,log ratio RGS19 (ILMN_1677085),-9.37E-01
same,log ratio RHBDD2 (probe ILMN_1809437),7.80E-01
same,log ratio RHBDD2 (probe ILMN_2406410),8.04E-01
same,log ratio RHOBTB3 (probe ILMN_1744949),8.25E-01
same,log ratio RHOC (probe ILMN_1673305),9.02E-01
same,log ratio RIOK3 (ILMN_2404135),5.99E-01
same,log ratio RNASE4 (probe ILMN_1776602),7.33E-01
same,log ratio RND2 (probe ILMN_1736533),7.06E-01
same,log ratio RNF24 (probe ILMN_1717809),7.24E-01
same,log ratio RNF135 (ILMN_1700660),-6.19E-01
same,log ratio RNFT2 (ILMN_3299905),6.00E-01
same,log ratio RPIA (ILMN_1714809),-9.23E-01
same,log ratio RPL29 (ILMN_1737517),-1.05E+00
same,log ratio RPL29 (ILMN_1771051),-1.03E+00
same,log ratio RPL36A (ILMN_2112811),-6.12E-01
same,log ratio RPP40 (ILMN_1810423),-1.07E+00
same,log ratio RPRD2 (ILMN_3238889),-7.98E-01
same,log ratio RPS6KA4 (ILMN_1756204),-7.98E-01
same,log ratio RRBP1 (ILMN_2360784),6.39E-01
same,log ratio RRS1 (ILMN_1767658),-7.92E-01
same,log ratio RTN2 (probe ILMN_1749115),8.60E-01
same,log ratio RTN3 (probe ILMN_2363065),7.08E-01
same,log ratio S100A4 (ILMN_1688780),6.50E-01
same,log ratio SALL2 (ILMN_1740842),6.64E-01
same,log ratio SBK1 (probe ILMN_1728298),8.80E-01
same,log ratio SCARNA11 (probe ILMN_3236010),6.95E-01
same,log ratio SCARNA13 (probe ILMN_3235325),7.18E-01
same,log ratio SCARNA14 (probe ILMN_3247636),7.31E-01
same,log ratio SCARNA23 (ILMN_3243966),6.49E-01
same,log ratio SCD5 (ILMN_2237428),6.35E-01
same,log ratio SDCBP (probe ILMN_2363586),8.86E-01
same,log ratio SDCBP (probe ILMN_2363591),8.22E-01
same,log ratio SDHA (ILMN_1744210),6.20E-01
same,log ratio SDHAP2 (probe ILMN_3248781),7.07E-01
same,log ratio SEMA4D (probe ILMN_1687533),7.86E-01
same,log ratio SEMA4F (probe ILMN_1805007),7.51E-01
same,log ratio SENP6 (ILMN_2054233),-8.91E-01
same,log ratio SEPHS1 (ILMN_1673369),-1.31E+00
same,log ratio SEPHS1 (ILMN_2176768),-1.36E+00
same,log ratio SEPHS2 (ILMN_1687824),6.78E-01
same,log ratio SERPINB9 (probe ILMN_1742052),7.55E-01
same,log ratio SERPINI1 (probe ILMN_1814333),7.79E-01
same,log ratio SESN1 (ILMN_1800626),5.92E-01
same,log ratio SETMAR (ILMN_1682404),-7.84E-01
same,log ratio SFRS7 (ILMN_1778836),-6.07E-01
same,log ratio SFXN4 (ILMN_2363361),-9.20E-01
same,log ratio SGK (probe ILMN_1702487),8.82E-01
same,log ratio SGSH (ILMN_2133675),5.92E-01
same,log ratio SH3GLB2 (probe ILMN_2158336),6.85E-01
same,log ratio SLC5A6 (ILMN_1741054),-9.72E-01
same,log ratio SLC7A1 (ILMN_1683859),-6.20E-01
same,log ratio SLC23A2 (probe ILMN_1746578),7.82E-01
same,log ratio SLC25A4 (probe ILMN_1681670),8.53E-01
same,log ratio SLC25A4 (probe ILMN_2211780),7.98E-01
same,log ratio SLC25A13 (ILMN_1668012),-8.15E-01
same,log ratio SLC25A23 (probe ILMN_1679949),7.04E-01
same,log ratio SLC35F2 (ILMN_2075189),-9.03E-01
same,log ratio SLC38A1 (ILMN_1769911),-9.30E-01
same,log ratio SLC38A5 (ILMN_1695058),-1.13E+00
same,log ratio SLC39A3 (ILMN_2234970),6.58E-01
same,log ratio SLC39A10 (ILMN_1656129),-5.93E-01
same,log ratio SLC43A3 (ILMN_1658407),-9.67E-01
same,log ratio SLC43A3 (ILMN_2330307),-8.92E-01
same,log ratio SLC44A2 (probe ILMN_1771987),7.92E-01
same,log ratio SLC45A3 (probe ILMN_1726114),7.11E-01
same,log ratio SLFN11 (ILMN_2162860),6.41E-01
same,log ratio SLFN11 (probe ILMN_1752520),7.62E-01
same,log ratio SLTM (ILMN_1742224),-9.17E-01
same,log ratio SLTM (ILMN_2395204),-8.02E-01
same,log ratio SMG5 (ILMN_2126239),-9.35E-01
same,log ratio SNAP23 (probe ILMN_1687519),8.74E-01
same,log ratio SNHG3-RCC1 (ILMN_1707493),-9.37E-01
same,log ratio SNORA76 (ILMN_3237562),-5.92E-01
same,log ratio SNORA80 (ILMN_3238554),6.42E-01
same,log ratio SNORD31 (probe ILMN_2072391),7.85E-01
same,log ratio SNORD65 (ILMN_3246353),-8.36E-01
same,log ratio SNUPN (ILMN_1733932),-7.98E-01
same,log ratio SNUPN (ILMN_2364535),-8.42E-01
same,log ratio SNX29 (ILMN_1659761),6.78E-01
same,log ratio SORT1 (probe ILMN_1707077),8.42E-01
same,log ratio SPAG1 (ILMN_2367681),5.96E-01
same,log ratio SPAG7 (ILMN_1684446),-8.14E-01
same,log ratio SPAG9 (ILMN_1799104),6.26E-01
same,log ratio SPAG9 (probe ILMN_2263718),7.33E-01
same,log ratio SPI1 (ILMN_2392043),-6.03E-01
same,log ratio SPINT2 (probe ILMN_1800739),8.11E-01
same,log ratio SPRY1 (ILMN_2329914),6.03E-01
same,log ratio SREBF1 (probe ILMN_1663035),7.22E-01
same,log ratio SRGN (probe ILMN_1760347),7.62E-01
same,log ratio SRGN (probe ILMN_2169152),7.60E-01
same,log ratio SRP72 (ILMN_1683888),-5.90E-01
same,log ratio SSPN (ILMN_1775486),-1.34E+00
same,log ratio STAG2 (ILMN_1782609),-9.17E-01
same,log ratio STARD10 (probe ILMN_1717052),8.01E-01
same,log ratio STK17B (probe ILMN_1798543),7.91E-01
same,log ratio STMN3 (probe ILMN_3244117),9.01E-01
same,log ratio STX3 (probe ILMN_1659544),8.71E-01
same,log ratio SUMO3 (ILMN_1725642),-9.81E-01
same,log ratio SUSD3 (probe ILMN_1785570),8.58E-01
same,log ratio SYNGR1 (ILMN_1810875),6.25E-01
same,log ratio TACC1 (probe ILMN_1770084),7.64E-01
same,log ratio TACO1 (ILMN_1685112),-6.19E-01
same,log ratio TADA1L (ILMN_1776487),-6.14E-01
same,log ratio TANK (probe ILMN_1715069),8.21E-01
same,log ratio TBC1D7 (probe ILMN_1661622),7.33E-01
same,log ratio TBC1D16 (probe ILMN_1758457),7.24E-01
